US5045566A, “Novel imidate insecticides” (ICI Americas Inc., priority 1989, dated 1991)

How the values were obtained:
Format in all cases: in vivo
[1] = test system: Housefly [Musca domestica]; test: Housefly contact mortality in dishes (HF), 48 hours; conditions: μg of test compound per 25 female flies
Outline: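 Residual contact test: acetone dilution, 0.01% peanut oil spreader, solvent evaporated; 25 ♀ flies (1-2 d old) per cage; sugar-water plug; 48 h mortality read. LC50 in μg/25 female flies, from dose-mortality curves; top dose 100 μg/25 flies.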

[2] = test system: Black Bean Aphid [Aphis fabae (Scop.)]; test: Black bean aphid spray test on nasturtium (BBA), 48 hours; conditions: percent of test compound in sprayed solution
Outline: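 LC50, given as percent test compound in the sprayed liquid, was calculated from dosage-mortality curves using concentrations from 0.05% downward. Sprays in 50:50 acetone-water went to runoff on ~5 cm nasturtiums carrying 25-50 aphids of mixed ages, one day after infestation. Deaths were counted 48 h later under greenhouse conditions.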

[3] = test system: Tobacco Budworm [Heliothis virescens (Fabricius)] eggs; test: Tobacco budworm eggs (TBW-E); conditions: percent in solution; 2-day old eggs
Outline: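 LC50 values (percent test compound in the dip solution) were calculated from dosage-mortality curves. Egg patches, 2 days old, were dipped in acetone solutions at concentrations from 0.1% downward and held at 78° F on rearing medium until control larvae hatched and fed.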

[4] = test system: Cabbage Looper [Trichoplusia ni (Hubner)]; test: Cabbage looper leaf dip (CL), 3-5 days; conditions: percent in solution, second-instar larvae
Outline: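 Leaf dip, squash cotyledons, 50-50 acetone-water, top dose 0.1% and lower. 5 second-instar larvae/dish, moist filter paper, high-humidity chamber. Mortality at 3-5 d; LC50 (% in solution) from dosage-mortality curves.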

[5] = test system: Maize weevil [Sitophilus zeamais (Motschulsky)]; test: Maize weevil on dipped corn seeds (MW), 48 hours; conditions: percent in solution, adult weevils
Outline: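 LC50, given as percent of compound in dipping solution, comes from dosage-mortality curves over concentrations descending from 0.01%. Four corn seeds soaked 2-3 s in 50:50 acetone:water solution were dried and held with 10 adult weevils, about 25° C, mortality read after 48 h.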

[6] = test system: Rice water weevil [Lissorhoptrus oryzophilus (Kuschel)]; test: Rice water weevil topical (RWW), 48 hours; conditions: μg of test compound per weevil, female adults
Protocol: The compounds in Tables 1 and 2 above were tested for insecticidal activity using the following testing procedures. LC50 values, based on the results of these tests and calculated according to dosage-mortality curves, are expressed in Table 3.
Rice water weevil [Lissorhoptrus oryzophilus (Kuschel)]:
Test compounds were diluted in acetone. Droplets (1 ul) of test solutions were applied to the ventral abdomens of ten female adult weevils. The treated weevils were placed in containers with wet cotton balls and rice foliage. The containers were covered and kept at a temperature of about 25° C. Mortality was recorded after 48 hours. Test concentrations ranged from […] down to that at which 50% mortality occurred. The LC50 values are expressed below in Table 3 under the heading "RWW" in terms of μg of test compound per weevil.

[7] = test system: Tobacco Budworm [Heliothis virescens (Fabricius)] larvae; test: Tobacco budworm larvae, contact (TBW-C), 5 days; conditions: percent in solution, second-instar larvae
Outline: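 Cotton cotyledons dipped 2–3 s in compound in 50-50 acetone-water, dried, then infested with 5 second-instar larvae and held 5 days at high humidity. Mortality scored; LC50 from dosage-mortality curves, expressed as percent compound in solution, concentrations from 0.1% downward.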

[8] = test system: Beet Armyworm (Spodoptera exigua); test: Beet armyworm leaf dip (BAW), 5 days; conditions: percent in solution; second-instar larvae; five days
Outline: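 Sugar beet leaves dipped 2–3 s in compound diluted in 50:50 acetone-water, dried, then infested with five second-instar larvae in humid petri dishes. Mortality scored at 5 days; concentrations from 0.1% downward. LC50 from dosage-mortality curves, expressed as percent compound in solution.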

[9] = test system: Aster Leafhopper [Macrosteles fascifrens (Stal)]; test: Aster leafhopper on dipped oat seedlings (LH), 48 hours; conditions: percent in solution, adults/nymphs
Outline: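 Three ~10 cm oat seedlings per cup were dipped 2-3 seconds in 50-50 acetone-water compound solutions, dried, and caged with ten adult/nymph leafhoppers. Mortality was counted after 48 hours at concentrations from 0.05% downward. LC50, as percent compound in solution, came from dosage-mortality curves.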

| SMILES | LC50 HF [1] [µg] | LC50 BBA [2] [%] | LC50 TBW E (eggs) [3] [%] | LC50 CL [4] [%] | LC50 MW [5] [%] | LC50 RWW [6] [µg] | LC50 TBW C (contact) [7] [%] | LC50 BAW [8] [%] | LC50 LH [9] [%] |
| --- | --- | --- | --- | --- | --- | --- | --- | --- | --- |
| CC(C)C(=Nc1ccc(F)c(Cl)c1)OCc1cc(Oc2ccc(F)cc2)ccc1F [Compound 230] | 36 | 0.01 | 0.1 | 0.0004 | 0.038 | > 2.5 |  |  |  |
| CC(C)C(=Nc1ccc(C(F)(F)F)cc1)OCc1ccc(F)c(Oc2ccc(F)cc2)c1 [Compound 314] | 21 |  | 0.012 | 0.00005 |  | 0.11 |  |  |  |
| Fc1ccc(N=C(OCc2cccc(Oc3ccccc3)c2)C2CC2)cc1Cl [Compound 113] | 15 |  |  | 0.005 |  | > 2.5 |  |  |  |
| CC(C)C(=Nc1ccc(F)c(Cl)c1)OCc1ccc(F)c(Oc2ccc(F)c(F)c2)c1 [Compound 346] | 7.2 | 0.0008 | > 0.1 | > 0.1 | > 0.01 |  | 0.0002 | > 0.1 | 0.05 |
| FC(F)(F)Oc1ccc(N=C(OCc2cccc(Oc3ccccc3)c2)C(Cl)Cl)cc1 [Compound 64] | 11 | 0.0006 | 0.03 | 0.0025 | > 0.01 |  | 0.1 | 0.0025 | > 0.05 |
| CC(C)C(=Nc1ccc(F)c(Br)c1)OCc1cccc(Oc2ccccc2)c1 [Compound 254] | 6 | 0.001 | 0.026 | 0.001 |  | > 2.5 |  |  |  |
| CC(C)C(=Nc1cccc(Cl)c1)OCc1cccc(Oc2ccc(Cl)cc2)c1 [Compound 270] | 12 | > 0.05 | > 0.01 | 0.00025 | > 0.01 |  | > 0.0015 | 0.005 | 0.003 |
| CC(=Nc1ccccc1)OCc1cccc(Oc2ccccc2)c1 [Compound 42] | 45 | > 0.05 | > 0.1 | > 0.1 | > 0.01 |  | > 0.1 | > 0.1 | > 0.05 |
| CC(C)(F)C(=Nc1ccc(F)c(Cl)c1)OCc1ccc(F)c(Oc2ccc(F)cc2)c1 [Compound 310] | 4.5 | 0.0006 | 0.015 | 0.00006 |  | > 2.5 |  |  |  |
| CC(C)C(=Nc1ccc(Cl)c(Cl)c1)OCc1cccc(Oc2ccccc2)c1 [Compound 9] | 14 | 0.001 | 0.02 | 0.001 | > 0.01 |  | 0.0008 | 0.0005 | 0.0003 |
| ClCC(=Nc1ccc(Cl)cc1)OCc1cccc(Oc2ccccc2)c1 [Compound 31] | > 100 | 0.05 | > 0.1 | 0.05 | > 0.01 |  | 0.01 | 0.08 | > 0.05 |
| CC(C)C(=Nc1ccc(OC(F)(F)F)cc1)OCc1ccc(F)c(Oc2ccc(F)c(F)c2)c1 [Compound 347] | 30 | 0.0002 | > 0.1 | 0.000075 | > 0.01 |  | 0.0001 | 0.00075 | 0.0002 |
| CC(Cl)(Cl)C(=Nc1ccc(Cl)cc1)OCc1cccc(Oc2ccccc2)c1 [Compound 3] | 50 | 0.003 | > 0.1 | 0.012 | > 0.01 |  | 0.009 | 0.015 | > 0.05 |
| FC(F)(F)c1ccc(N=C(OCc2cccc(Oc3ccccc3)c2)C(Cl)Cl)cc1 [Compound 61] | 29 | 0.001 | 0.03 | 0.001 | > 0.01 |  | 0.03 | 0.002 | > 0.05 |
| CC(C)C(=Nc1ccc(F)c(F)c1F)OCc1cccc(Oc2ccc(F)cc2)c1 [Compound 348] | 8 | 0.001 | > 0.1 | 0.0002 | > 0.01 |  | 0.00075 | > 0.1 | 0.05 |
| CC(C)C(=Nc1ccc(C(C)C)cc1)OCc1cccc(Oc2ccccc2)c1 [Compound 144] | 100 | 0.003 | 0.05 | 0.002 | > 0.01 |  | 0.006 | > 0.01 | 0.0006 |
| CC(Cl)C(=Nc1ccc(Cl)cc1)OCc1cccc(Oc2ccccc2)c1 (stereo not shown) [Compound 33] | 17 | 0.003 | > 0.1 | 0.01 | > 0.01 |  | 0.0025 | 0.02 | > 0.05 |
| CC(C)C(=Nc1cc(F)cc(C(F)(F)F)c1)OCc1cccc(Oc2ccccc2)c1 [Compound 77] | 10 | 0.001 | 0.03 | 0.0005 | > 0.01 |  | 0.0004 | 0.004 | 0.0002 |
